According to patent publication US7612072B2, “Amorphous form of a phosphoric acid salt of a dipeptidyl peptidase-IV inhibitor” (Merck & Co., Inc., priority 2004, dated 2009):

Test: Solubility in water of the amorphous form
Type: physicochemical

solubility in water: high solubility in water
SMILES: N[C@@H](CC(=O)N1CCn2c(nnc2C(F)(F)F)C1)Cc1cc(F)c(F)cc1F [Compound I, (2R)-4-oxo-4-[3-(trifluoromethyl)-5,6-dihydro[1,2,4]triazolo[4,3-α]pyrazin-7(8H)-yl]-1-(2,4,5-trifluorophenyl)butan-2-amine dihydrogenphosphate]
